The record followed here is patent publication US12427210B2, “Compounds comprising a fibroblast activation protein ligand and use thereof” (priority 2019, dated 2025).

Like-named read-outs stand apart in the source and are kept apart here. Numbered stars: 1 amine (or outer) side, 2 acyl side, 3 side chain; on linkers, the order of the positions; unused ones are H or OH. Bridge positions count the residues as written; N and C are the ends. Peptide text beside a SMILES is read from it. * marks the point of attachment. X1 = O=C(O)CN1CCN(CC(=O)O)CCN(CC(=O)N2CCN(Cc3cc(C[*:1])cc(C[*:2])c3)CC2)CCN(CC(=O)O)CC1; Hexanoyl = CCCCCC(=O)*

For one data set, the target named is PDE3A (h) (Homo sapiens, UniProt Q14432). The data set is described as follows: biochemical. To be noted: read-out: % Inhibition of Specific Binding.
Data set [1] deals with serine protease NS3 (a.a. 3-181) from Hepatitis C virus genotype 1b.
A further data set addresses mu (MOP) (h) (Homo sapiens, UniProt P35372). In words: biochemical. The note with it: read-out: % Inhibition of Specific Binding.
The next data set addresses T1, Caspase-3 (Homo sapiens, UniProt P42574).
T1 sequence (P42574 29-175 limits assumed): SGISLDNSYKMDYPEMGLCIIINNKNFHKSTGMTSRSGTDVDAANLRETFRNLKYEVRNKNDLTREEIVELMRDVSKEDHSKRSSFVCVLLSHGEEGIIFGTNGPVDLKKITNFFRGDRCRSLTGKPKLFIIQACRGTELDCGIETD
T1 sequence (P42574 176-277 limits assumed): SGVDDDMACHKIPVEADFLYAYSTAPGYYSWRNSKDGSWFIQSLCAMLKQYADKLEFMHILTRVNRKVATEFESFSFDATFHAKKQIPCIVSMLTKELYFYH
The data set is described as follows: biochemical. To be noted: read-out: Percentage inhibition (%).

A further data set has as its target GR (h) (Homo sapiens, UniProt P04150). In words: biochemical. To be noted: read-out: % Inhibition of Specific Binding.
The target of the next data set is beta 1 (h) (Homo sapiens, UniProt P08588). The data set is described as follows: biochemical. The note with it: read-out: % Inhibition of Specific Binding.
Another data set has as its target T2, Cathepsin F (Homo sapiens, UniProt Q9UBX1).
T2 sequence (Q9UBX1 271-484): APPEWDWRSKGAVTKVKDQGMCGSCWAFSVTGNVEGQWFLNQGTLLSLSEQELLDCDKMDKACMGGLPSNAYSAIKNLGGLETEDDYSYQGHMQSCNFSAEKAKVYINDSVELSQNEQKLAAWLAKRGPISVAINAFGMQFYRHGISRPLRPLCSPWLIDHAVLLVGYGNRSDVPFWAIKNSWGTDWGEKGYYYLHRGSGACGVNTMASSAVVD
The data set is described as follows: biochemical. To be noted: read-out: Percentage inhibition (%).

Data set [2] deals with Ubiquitin carboxyl-terminal hydrolase 7 (Homo sapiens, UniProt Q93009). The data set is described as follows: biochemical. The note with it: read-out: Percentage inhibition (%).
A further data set deals with T3, Matrix metalloprotease 2 (Homo sapiens, UniProt P08253).
T3 sequence (P08253 110-660): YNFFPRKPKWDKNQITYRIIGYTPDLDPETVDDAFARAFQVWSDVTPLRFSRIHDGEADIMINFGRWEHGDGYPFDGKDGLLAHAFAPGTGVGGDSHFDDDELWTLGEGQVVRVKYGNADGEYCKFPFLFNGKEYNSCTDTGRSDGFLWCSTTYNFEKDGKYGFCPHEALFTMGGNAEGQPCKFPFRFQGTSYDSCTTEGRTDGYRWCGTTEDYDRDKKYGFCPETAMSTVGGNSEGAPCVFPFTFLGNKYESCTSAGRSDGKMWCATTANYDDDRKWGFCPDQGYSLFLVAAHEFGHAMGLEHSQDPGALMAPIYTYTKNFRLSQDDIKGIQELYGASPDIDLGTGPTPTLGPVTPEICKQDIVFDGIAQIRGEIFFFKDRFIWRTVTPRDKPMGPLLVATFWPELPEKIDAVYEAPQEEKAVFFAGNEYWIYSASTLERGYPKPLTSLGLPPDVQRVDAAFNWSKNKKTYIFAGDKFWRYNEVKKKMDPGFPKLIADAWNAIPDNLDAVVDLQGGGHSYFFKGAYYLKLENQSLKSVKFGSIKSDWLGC
The data set is described as follows: biochemical. The note with it: read-out: Percentage inhibition (%).

Another data set can be described thus: in vivo. To be noted: mouse, iv; for clearance: in vivo; for AUC(0-inf) / C0 / half-life / Vd: plasma; for Vd: mouse plasma.
For a further data set, the target named is DPP3 (Homo sapiens, UniProt Q9NY33). The data set is described as follows: biochemical. To be noted: read-out: Percentage inhibition (%).
Chain of DPP3 (Q9NY33 whole entry, species assumed): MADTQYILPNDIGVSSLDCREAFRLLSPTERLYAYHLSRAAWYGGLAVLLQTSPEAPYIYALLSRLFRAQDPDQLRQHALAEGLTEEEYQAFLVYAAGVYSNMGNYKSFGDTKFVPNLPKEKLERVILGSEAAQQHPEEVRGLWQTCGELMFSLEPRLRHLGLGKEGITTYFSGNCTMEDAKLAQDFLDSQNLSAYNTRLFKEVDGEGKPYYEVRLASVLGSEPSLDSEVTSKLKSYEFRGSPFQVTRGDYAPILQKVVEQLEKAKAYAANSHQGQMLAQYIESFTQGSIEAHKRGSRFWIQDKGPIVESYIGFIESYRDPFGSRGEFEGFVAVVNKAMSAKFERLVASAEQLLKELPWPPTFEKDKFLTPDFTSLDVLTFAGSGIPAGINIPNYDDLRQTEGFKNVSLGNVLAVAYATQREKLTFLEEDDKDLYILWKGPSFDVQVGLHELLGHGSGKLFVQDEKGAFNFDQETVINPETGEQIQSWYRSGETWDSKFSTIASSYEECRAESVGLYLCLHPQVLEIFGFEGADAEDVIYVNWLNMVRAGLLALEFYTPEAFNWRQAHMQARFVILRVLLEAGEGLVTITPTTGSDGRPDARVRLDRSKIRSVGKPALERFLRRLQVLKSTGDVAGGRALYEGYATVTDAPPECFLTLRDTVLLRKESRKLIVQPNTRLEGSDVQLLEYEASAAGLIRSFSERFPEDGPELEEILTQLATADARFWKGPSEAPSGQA

Chain of Ubiquitin carboxyl-terminal hydrolase 7 (Q93009 whole entry): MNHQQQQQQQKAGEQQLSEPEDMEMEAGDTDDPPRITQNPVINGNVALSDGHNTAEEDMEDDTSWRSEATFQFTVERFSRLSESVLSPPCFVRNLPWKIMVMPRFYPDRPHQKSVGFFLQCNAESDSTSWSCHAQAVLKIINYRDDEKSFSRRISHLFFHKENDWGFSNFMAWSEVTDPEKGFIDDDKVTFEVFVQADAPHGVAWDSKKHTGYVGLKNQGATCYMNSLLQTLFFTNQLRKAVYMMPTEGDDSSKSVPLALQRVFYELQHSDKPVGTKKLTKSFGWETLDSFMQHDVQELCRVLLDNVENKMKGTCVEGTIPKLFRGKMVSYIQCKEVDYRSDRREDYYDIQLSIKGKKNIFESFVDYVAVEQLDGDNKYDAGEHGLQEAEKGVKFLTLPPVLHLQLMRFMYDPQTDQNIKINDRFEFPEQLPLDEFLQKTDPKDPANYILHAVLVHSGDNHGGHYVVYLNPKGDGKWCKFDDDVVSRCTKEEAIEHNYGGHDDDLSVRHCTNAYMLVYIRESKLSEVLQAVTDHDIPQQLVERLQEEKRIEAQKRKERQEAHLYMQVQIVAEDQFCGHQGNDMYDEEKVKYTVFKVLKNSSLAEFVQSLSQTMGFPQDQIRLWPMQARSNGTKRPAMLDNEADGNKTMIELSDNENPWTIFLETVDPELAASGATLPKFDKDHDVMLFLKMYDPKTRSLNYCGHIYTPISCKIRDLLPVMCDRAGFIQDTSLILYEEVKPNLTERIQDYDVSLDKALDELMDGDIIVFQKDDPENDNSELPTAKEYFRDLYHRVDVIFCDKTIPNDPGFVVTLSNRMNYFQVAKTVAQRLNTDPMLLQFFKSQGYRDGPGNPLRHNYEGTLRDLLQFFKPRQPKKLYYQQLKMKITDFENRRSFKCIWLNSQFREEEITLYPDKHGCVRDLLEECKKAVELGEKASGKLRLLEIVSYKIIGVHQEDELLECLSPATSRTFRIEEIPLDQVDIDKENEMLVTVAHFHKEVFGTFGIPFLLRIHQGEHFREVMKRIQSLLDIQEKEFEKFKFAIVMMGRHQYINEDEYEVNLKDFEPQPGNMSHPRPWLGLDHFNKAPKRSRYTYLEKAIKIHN
Chain of mu (MOP) (h) (P35372 whole entry): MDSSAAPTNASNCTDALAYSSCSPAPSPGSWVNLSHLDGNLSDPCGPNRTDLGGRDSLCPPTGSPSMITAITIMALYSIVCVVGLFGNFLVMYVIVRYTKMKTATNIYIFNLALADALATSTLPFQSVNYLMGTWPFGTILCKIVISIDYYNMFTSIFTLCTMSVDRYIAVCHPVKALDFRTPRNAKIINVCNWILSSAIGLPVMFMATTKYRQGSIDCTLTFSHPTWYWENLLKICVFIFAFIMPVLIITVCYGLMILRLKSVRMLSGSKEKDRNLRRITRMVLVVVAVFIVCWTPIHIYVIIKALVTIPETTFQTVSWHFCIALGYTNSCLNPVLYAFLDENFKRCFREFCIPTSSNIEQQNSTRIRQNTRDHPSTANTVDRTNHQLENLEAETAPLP
Chain of beta 1 (h) (P08588 whole entry): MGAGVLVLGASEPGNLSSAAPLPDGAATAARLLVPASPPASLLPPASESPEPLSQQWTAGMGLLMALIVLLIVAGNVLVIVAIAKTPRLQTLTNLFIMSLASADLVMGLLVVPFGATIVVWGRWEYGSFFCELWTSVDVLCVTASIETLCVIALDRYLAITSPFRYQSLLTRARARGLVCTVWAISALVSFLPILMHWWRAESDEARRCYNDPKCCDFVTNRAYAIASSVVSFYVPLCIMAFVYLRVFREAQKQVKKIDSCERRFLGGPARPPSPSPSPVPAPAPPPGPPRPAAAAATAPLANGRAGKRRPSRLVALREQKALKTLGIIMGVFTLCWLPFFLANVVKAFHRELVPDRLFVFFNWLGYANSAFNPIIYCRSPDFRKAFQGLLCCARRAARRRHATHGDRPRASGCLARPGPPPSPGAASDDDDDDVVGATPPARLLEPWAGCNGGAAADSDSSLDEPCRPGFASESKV
Chain of PDE3A (h) (Q14432 whole entry): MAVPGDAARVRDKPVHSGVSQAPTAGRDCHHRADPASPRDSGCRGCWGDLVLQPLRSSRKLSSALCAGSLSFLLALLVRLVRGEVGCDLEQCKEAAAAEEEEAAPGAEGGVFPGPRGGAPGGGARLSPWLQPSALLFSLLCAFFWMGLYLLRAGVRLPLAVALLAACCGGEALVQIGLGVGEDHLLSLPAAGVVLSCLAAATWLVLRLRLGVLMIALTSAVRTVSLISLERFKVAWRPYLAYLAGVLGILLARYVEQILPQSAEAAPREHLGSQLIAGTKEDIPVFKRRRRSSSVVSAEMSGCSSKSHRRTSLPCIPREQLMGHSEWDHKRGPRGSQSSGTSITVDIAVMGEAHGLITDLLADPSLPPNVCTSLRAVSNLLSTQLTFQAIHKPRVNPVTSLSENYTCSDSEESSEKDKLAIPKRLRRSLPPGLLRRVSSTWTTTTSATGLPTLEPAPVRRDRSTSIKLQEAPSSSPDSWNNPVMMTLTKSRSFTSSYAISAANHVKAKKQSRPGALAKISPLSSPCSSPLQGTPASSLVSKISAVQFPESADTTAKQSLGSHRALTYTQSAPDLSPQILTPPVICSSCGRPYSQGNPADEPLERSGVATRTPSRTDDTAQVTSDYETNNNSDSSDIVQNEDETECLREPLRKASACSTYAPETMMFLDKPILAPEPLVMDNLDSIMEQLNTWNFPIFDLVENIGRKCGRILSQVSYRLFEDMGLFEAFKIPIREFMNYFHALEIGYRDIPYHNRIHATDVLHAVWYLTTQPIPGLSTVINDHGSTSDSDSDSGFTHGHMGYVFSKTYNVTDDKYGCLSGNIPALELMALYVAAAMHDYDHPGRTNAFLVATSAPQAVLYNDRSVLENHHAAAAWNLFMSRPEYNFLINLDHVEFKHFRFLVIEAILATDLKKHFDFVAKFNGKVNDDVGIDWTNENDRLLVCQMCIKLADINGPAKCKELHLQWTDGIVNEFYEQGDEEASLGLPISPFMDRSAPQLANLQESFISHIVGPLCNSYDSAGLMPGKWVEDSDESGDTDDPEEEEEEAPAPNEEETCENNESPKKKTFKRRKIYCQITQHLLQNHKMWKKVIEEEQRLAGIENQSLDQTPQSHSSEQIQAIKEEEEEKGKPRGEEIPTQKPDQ
Chain of GR (h) (P04150 whole entry): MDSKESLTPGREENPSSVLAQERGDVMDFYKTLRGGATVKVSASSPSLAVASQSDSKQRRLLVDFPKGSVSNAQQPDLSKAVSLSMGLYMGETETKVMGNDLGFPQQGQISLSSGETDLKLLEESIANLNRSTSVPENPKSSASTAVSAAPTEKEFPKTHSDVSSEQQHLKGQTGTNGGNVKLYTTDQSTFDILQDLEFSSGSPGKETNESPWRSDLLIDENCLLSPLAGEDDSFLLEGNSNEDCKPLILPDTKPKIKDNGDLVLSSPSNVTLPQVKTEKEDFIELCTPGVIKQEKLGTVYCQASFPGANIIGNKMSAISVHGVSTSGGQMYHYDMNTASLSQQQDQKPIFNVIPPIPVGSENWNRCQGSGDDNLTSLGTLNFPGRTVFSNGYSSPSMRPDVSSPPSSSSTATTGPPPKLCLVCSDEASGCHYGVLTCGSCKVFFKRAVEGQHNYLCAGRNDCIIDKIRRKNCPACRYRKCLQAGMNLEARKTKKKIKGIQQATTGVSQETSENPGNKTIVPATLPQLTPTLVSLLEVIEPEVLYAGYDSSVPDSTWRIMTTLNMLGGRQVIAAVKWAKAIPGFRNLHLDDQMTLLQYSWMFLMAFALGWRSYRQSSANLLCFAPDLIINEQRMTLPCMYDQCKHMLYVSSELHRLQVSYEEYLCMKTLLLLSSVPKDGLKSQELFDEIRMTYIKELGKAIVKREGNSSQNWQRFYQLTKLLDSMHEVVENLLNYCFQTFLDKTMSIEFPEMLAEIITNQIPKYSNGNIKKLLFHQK

As for `CCCCCC(=O)N[C@H]1CSCc2cc(cc(CN3CCN(C(=O)CN4CCN(CC(=O)O)CCN(CC(=O)O)CCN(CC(=O)O)CC4)CC3)c2)CSC[C@@H](C(=O)N[C@@H](CC(=O)O)C(N)=O)NC(=O)[C@H](Cc2ccccc2)NC(=O)[C@H](CCC(N)=O)NC(=O)[C@H]([C@@H](C)O)NC(=O)[C@@H]2CCCN2C(=O)[C@@H]2CCCN2C1=O` [Compound 3BP-3407, Hex-[Cys(tMeBn(DOTA-PP))-Pro-Pro-Thr-Gln-Phe-Cys]-Asp-NH2] (Hexanoyl-CPPTQFCD-NH2; linker 1-7 via X1), the inhibition at 10 µM was -3% on PDE3A (h); 2% on mu (MOP) (h); -2% on Caspase-3; -2% on GR (h); 4% at beta 1 (h); -24% at Cathepsin F. Besides, the inhibition at 10 µM in [2] is 5%; on Matrix metalloprotease 2 it was 3%. The “Percentage inhibition (%)” value is on record as 1% in data set [1] (1 μM) and 5% in data set [1] (10 μM). In addition, the inhibition at 1 µM was 1% on Caspase-3, -3% on Cathepsin F, 5% in [2] and 3% at Matrix metalloprotease 2.

On to `CCCCCC(=O)N[C@H]1CSCc2cc(CSCCNC(=O)CN3CCN(CC(=O)O)CCN(CC(=O)O)CCN(CC(=O)O)CC3)cc(c2)CSC[C@@H](C(=O)O)NC(=O)[C@H](Cc2ccccc2)NC(=O)[C@H](CCC(N)=O)NC(=O)[C@H]([C@@H](C)O)NC(=O)[C@@H]2CCCN2C(=O)[C@@H]2CCCN2C1=O` [Compound 3BP-3554, Hex-[Cys(tMeBn(DOTA-AET))-Pro-Pro-Thr-Gln-Phe-Cys]-OH], for which the inhibition at 10 µM was -37% at PDE3A (h); -10% at mu (MOP) (h); -1% at Caspase-3; 0% on GR (h); -13% at beta 1 (h); -25% on Cathepsin F. The inhibition at 10 µM in [2] is 1%; at DPP3, -1%; at Matrix metalloprotease 2 it was -2%. Also, the figures for the “Percentage inhibition (%)” value in [1] (1 μM) and in data set [1] (10 μM) were −5% and −9%, respectively. Besides, the inhibition at 1 µM at Caspase-3 was -2%; at Cathepsin F it was -23%; in data set [2], 1%; on DPP3, 2%; on Matrix metalloprotease 2 it was -1%. Besides, the clearance in the data set “in vivo” (4 nmol/kg) was 8.03 mL/min/kg; in the data set “in vivo” (40 nmol/kg), 11.8 mL/min/kg; in the data set “in vivo” (400 nmol/kg), 8.03 mL/min/kg. Also, the results for the area under the curve AUC(0-inf) in “in vivo” (4 nmol/kg), in the data set “in vivo” (40 nmol/kg) and in “in vivo” (400 nmol/kg) were 0.0083 µM·h, 0.056 µM·h and 0.961 µM·h, respectively. For the same molecule, the C0 is 25.6 nM in the data set “in vivo” (4 nmol/kg), 177 nM in the data set “in vivo” (40 nmol/kg) and 4970 nM in “in vivo” (400 nmol/kg). Moreover, the half-life turned out to be 23 min in the data set “in vivo” (4 nmol/kg), 59 min in “in vivo” (40 nmol/kg) and 40 min in the data set “in vivo” (400 nmol/kg). Also, the volume of distribution (Vd) in “in vivo” (4 nmol/kg, Vss, intravenous 4 nmol/kg) is 0.21 L/kg; in “in vivo” (4 nmol/kg, Vz, intravenous 4 nmol/kg) it was 0.26 L/kg; in the data set “in vivo” (40 nmol/kg, Vss, intravenous 40 nmol/kg) it was 0.32 L/kg; in the data set “in vivo” (40 nmol/kg, Vz, intravenous 40 nmol/kg), 1.02 L/kg; in the data set “in vivo” (400 nmol/kg, Vss, intravenous 400 nmol/kg), 0.1 L/kg; in “in vivo” (400 nmol/kg, Vz, intravenous 400 nmol/kg), 0.21 L/kg.
